Measured values from PubChem BioAssay AID1963834 (Molecular Pharmacology Branch, DTP, NCI, 2024).

System: 873145-292-R-J1-PDC complex spheroid viability
Experiment: Anticancer human tumor 873145-292-R-J1-PDC patient-derived renal clear cell carcinoma cell line growth inhibition [POLQ]
Details: for viability, T/C: stronger effect = lower value
Procedure: Multicellular complex tumor spheroid response to Polymerase (POL) inhibitors (novobiocin, ART-558, RP6685) in combination with a variety of drugs and investigational agents in selected tumor cell lines
The POL inhibitors (novobiocin, ART-558, and RP6685) were evaluated both individually and in combination with standard of care and investigational anticancer small molecules within a complex spheroid model of solid tumors. . Complex spheroids include a stromal component modeled by human endothelial cells (HUVEC) and fibroblasts modeled by human mesenchymal stem cells (MSCs). The concentration ranges selected for each drug and investigational agent were based upon clinically achievable concentrations if the clinical Cmax of the agent was known.
Compounds. The drugs and investigational agents: novobiocin (NSC847541), ART-558 (NSC835418), RP-6685 (NSC848927), peposertib (NSC802822), ceralasertib (NSC780249), elimusertib (NSC800525), camonsertib (NSC841442), AZD-1390 (NSC803789), olaparib (NSC753686), talazoparib (NSC767125), rucaparib (NSC756644), sotorasib (NSC818433), MRTX-1133 (NSC836407), SN-38 (NSC673596), topotecan (NSC609699), epotoside (NSC141540), doxorubicin (NSC123127), gemcitabine (NSC613327), 5-fluorouracil (NSC19893), paclitaxel (NSC125973), vemurafenib (NSC761431), MSA-2 (NSC828583), SN-011 (NSC837082), adavosertib (NSC754352), prexasertib (NSC758257), carboplatin (NSC241240) and oxaliplatin (NSC266046), were obtained from the National Cancer Institute (NCI) Developmental Therapeutics Program Chemical Repository (21). The FDA-approved anticancer drug set is available from the Developmental Therapeutics Program at https://dtp.cancer.gov/organization/dscb/obtaining/. […] The stock solutions were prepared in dimethyl sulfoxide (DMSO, Sigma-Aldrich, St. Louis, MO, cat. D2650), except for the platinum compounds which were prepared in saline (Quality Biological, Gaithersburg, MD, cat. 114-055-101), at 800-fold the tested concentration and stored at -70 degrees C prior to their use. All drugs and investigational agents were tested over a range starting from a high concentration at or near the clinical Cmax and decreasing in half-log increments. If the clinical Cmax for an agent had not been determined, the highest concentration tested was 10 microM, except for SN-38, which was tested at a high concentration of 1 microM.
Cell Culture. All cells were maintained in an incubator at 37 degrees C and 5% CO2 with 95% humidity. The PDC lines were cultured according to standard operating procedures established by the NCI PDMR (https://pdmr.cancer.gov). Table 3 of the manuscript, lists the cell lines along with the number of the three cell types plated to form the mct-spheroids and media for tumor cell growth. After thawing, all PDC lines, except 997537-175-T-J1-PDC and 415267-285-R-J2-PDC, were cultured in Matrigel-coated flasks prepared with a working solution of 1X Ham's F-12 nutrient mix, without supplementation (Thermo Fisher Scientific, cat. 11765054), 100 U/mL penicillin-streptomycin (Thermo Fisher Scientific, cat. 15140122), and 2.5% Matrigel (Corning Inc., Corning, NY, cat. 354248) for the first three passages. The two PDC lines 997537-175-T-J1-PDC and 415267-285-R-J2-PDC were cultured on uncoated flasks. The 857933-349-R-J2-PDC line was cultured in 6C/Colon 1B media containing advanced DMEM/F-12 (Thermo Fisher Scientific, cat. 12634028), 10 mM HEPES (Thermo Fisher Scientific, cat. 15630080), 1X GlutaMAX supplement (Thermo Fisher Scientific, cat. 35050061), 0.1 mg/mL primocin (InvivoGen, San Diego, CA, cat. ant-pm-2), 10% defined fetal bovine serum, heat inactivated (HyClone Laboratories Inc., Logan, UT, cat. SH30070.03HI), 50% L-WRN conditioned media (ATCC, cat. CRL-3276), 1.25 mM N-Acetyl-L-cysteine (Sigma-Aldrich, cat. A9165), 10 mM nicotinamide (Sigma-Aldrich, cat. N0636), 1X B-27 supplement (Thermo Fisher Scientific, cat. 17504044), 1X N-2 supplement (Thermo Fisher Scientific, cat. […]

[1] = curve of first compound, second compound 0.0316 µM
[2] = curve of first compound, second compound 0.1 µM
[3] = curve of first compound, second compound 0.316 µM
[4] = curve of first compound, second compound 1 µM
[5] = curve of first compound, second compound 3.16 µM
[6] = curve of first compound, second compound 10 µM
[7] = second compound 0.0316 µM, first compound 0.0316 µM
[8] = second compound 0.0316 µM, first compound 0.1 µM
[9] = second compound 0.0316 µM, first compound 0.316 µM
[10] = second compound 0.0316 µM, first compound 1 µM
[11] = second compound 0.0316 µM, first compound 3.16 µM
[12] = second compound 0.0316 µM, first compound 10 µM
[13] = second compound 0.1 µM, first compound 0.0316 µM
[14] = second compound 0.1 µM, first compound 0.1 µM
[15] = second compound 0.1 µM, first compound 0.316 µM
[16] = second compound 0.1 µM, first compound 1 µM
[17] = second compound 0.1 µM, first compound 3.16 µM
[18] = second compound 0.1 µM, first compound 10 µM
[19] = second compound 0.316 µM, first compound 0.0316 µM
[20] = second compound 0.316 µM, first compound 0.1 µM
[21] = second compound 0.316 µM, first compound 0.316 µM
[22] = second compound 0.316 µM, first compound 1 µM
[23] = second compound 0.316 µM, first compound 3.16 µM
[24] = second compound 0.316 µM, first compound 10 µM
[25] = second compound 1 µM, first compound 0.0316 µM
[26] = second compound 1 µM, first compound 0.1 µM
[27] = second compound 1 µM, first compound 0.316 µM
[28] = second compound 1 µM, first compound 1 µM
[29] = second compound 1 µM, first compound 3.16 µM
[30] = second compound 1 µM, first compound 10 µM
[31] = second compound 3.16 µM, first compound 0.0316 µM
[32] = second compound 3.16 µM, first compound 0.1 µM
[33] = second compound 3.16 µM, first compound 0.316 µM
[34] = second compound 3.16 µM, first compound 1 µM
[35] = second compound 3.16 µM, first compound 3.16 µM
[36] = second compound 3.16 µM, first compound 10 µM
[37] = second compound 10 µM, first compound 0.0316 µM
[38] = second compound 10 µM, first compound 0.1 µM
[39] = second compound 10 µM, first compound 0.316 µM
[40] = second compound 10 µM, first compound 1 µM
[41] = second compound 10 µM, first compound 3.16 µM
[42] = second compound 10 µM, first compound 10 µM
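Note: spheroids exposed to compounds for 7 days before viability readout.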
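Throughout, for viability, T/C: luminescence signal used as surrogate for viable cell content; 100% = DMSO vehicle control viability.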

Q: With COC1C(OC(N)=O)C(O)C(Oc2ccc3c(O)c(NC(=O)c4ccc(O)c(CC=C(C)C)c4)c(=O)oc3c2C)OC1(C)C (stereo not given) as the compound, how does the viability, T/C (compound 0.0316 µM) read?
A: 93.7% [middle of 13 runs]

Q: And the viability, T/C (compound 0.316 µM)?
A: 102% [middle of 13 runs]

Q: And the viability, T/C (compound 1 µM)?
A: 99.8% [middle of 13 runs]

Q: And the viability, T/C (compound 3.16 µM)?
A: 102% [middle of 13 runs]

Q: And the viability, T/C (compound 10 µM)?
A: 98.3% [middle of 13 runs]

Q: What about the IC50 (compound alone, run of 01/08/2024) of the same compound?
A: > 10 µM

Q: Which results are given for C#Cc1c(F)ccc2cc(O)cc(-c3ncc4c(N5CC6CCC(C5)N6)nc(OCC56CCCN5CC(F)C6)nc4c3F)c12 (stereo not given) + COC1C(OC(N)=O)C(O)C(Oc2ccc3c(O)c(NC(=O)c4ccc(O)c(CC=C(C)C)c4)c(=O)oc3c2C)OC1(C)C?
A: IC50 [1]: > 10 µM; IC50 [2]: > 10 µM; IC50 [3]: > 10 µM; IC50 [4]: > 10 µM; IC50 [5]: > 10 µM; IC50 [6]: > 10 µM; viability, T/C [7]: 97.7%; viability, T/C [8]: 92.7%; viability, T/C [9]: 95.1%; viability, T/C [10]: 83.9%; viability, T/C [11]: 86.5%; viability, T/C [12]: 89.6%; viability, T/C [13]: 102%; viability, T/C [14]: 97.7%; viability, T/C [15]: 99%; viability, T/C [16]: 75.7%; viability, T/C [17]: 79.6%; viability, T/C [18]: 82.7%; viability, T/C [19]: 98%; viability, T/C [20]: 85.7%; viability, T/C [21]: 82.1%; viability, T/C [22]: 77.8%; viability, T/C [23]: 86.5%; viability, T/C [24]: 80.4%; viability, T/C [25]: 94.4%; viability, T/C [26]: 97.1%; viability, T/C [27]: 99.7%; viability, T/C [28]: 76%; viability, T/C [29]: 82.2%; viability, T/C [30]: 88.3%; viability, T/C [31]: 92.5%; viability, T/C [32]: 92.9%; viability, T/C [33]: 83.4%; viability, T/C [34]: 79.3%; viability, T/C [35]: 86.4%; viability, T/C [36]: 84%; viability, T/C [37]: 86.2%; viability, T/C [38]: 95.5%; viability, T/C [39]: 82.1%; viability, T/C [40]: 86.3%; viability, T/C [41]: 86.9%; viability, T/C [42]: 82.1%

Q: Which IC50 [1] does the source give for CC(C)n1c(=O)n(C)c2cnc3cc(F)c(-c4ccc(OCCCN5CCCCC5)nc4)cc3c21 + Nc1ccc(C#CCN(C(=O)Cc2ncc(C(F)(F)F)cc2C(F)(F)F)c2ccc(F)cc2)nn1 here?
A: > 10 µM

Q: And the IC50 [2]?
A: > 10 µM

Q: And the IC50 [3]?
A: > 10 µM

Q: What about the IC50 [4] of the same compound?
A: > 10 µM

Q: And the IC50 [5]?
A: > 10 µM

Q: What about the IC50 [6] of the same compound?
A: > 10 µM

Q: What about the viability, T/C [7] of the same compound?
A: 97.1%

Q: What about the viability, T/C [8] of the same compound?
A: 106%

Q: And the viability, T/C [9]?
A: 97.8%

Q: And the viability, T/C [10]?
A: 102%

Q: What about the viability, T/C [11] of the same compound?
A: 99.6%

Q: What about the viability, T/C [12] of the same compound?
A: 107%

Q: And the viability, T/C [13]?
A: 107%

Q: And the viability, T/C [14]?
A: 112%

Q: What about the viability, T/C [15] of the same compound?
A: 97.1%

Q: And the viability, T/C [16]?
A: 108%

Q: And the viability, T/C [17]?
A: 93.8%

Q: What about the viability, T/C [18] of the same compound?
A: 80.5%

Q: What about the viability, T/C [19] of the same compound?
A: 104%

Q: What about the viability, T/C [20] of the same compound?
A: 115%

Q: What about the viability, T/C [21] of the same compound?
A: 97%

Q: What about the viability, T/C [22] of the same compound?
A: 103%

Q: And the viability, T/C [23]?
A: 104%

Q: And the viability, T/C [24]?
A: 72.1%

Q: And the viability, T/C [25]?
A: 109%

Q: And the viability, T/C [26]?
A: 106%

Q: And the viability, T/C [27]?
A: 113%

Q: What about the viability, T/C [28] of the same compound?
A: 96%

Q: And the viability, T/C [29]?
A: 97%

Q: And the viability, T/C [30]?
A: 85.8%

Q: And the viability, T/C [31]?
A: 99.8%

Q: What about the viability, T/C [32] of the same compound?
A: 111%

Q: And the viability, T/C [33]?
A: 92.4%

Q: And the viability, T/C [34]?
A: 102%

Q: What about the viability, T/C [35] of the same compound?
A: 101%

Q: What about the viability, T/C [36] of the same compound?
A: 86.1%

Q: What about the viability, T/C [37] of the same compound?
A: 110%

Q: And the viability, T/C [38]?
A: 101%

Q: What about the viability, T/C [39] of the same compound?
A: 108%

Q: What about the viability, T/C [40] of the same compound?
A: 107%

Q: What about the viability, T/C [41] of the same compound?
A: 104%

Q: What about the viability, T/C [42] of the same compound?
A: 86%
